Measurements as given in ChEMBL document CHEMBL1138902, “New 3-alkylamino-4H-thieno-1,2,4-thiadiazine 1,1-dioxide derivatives activate ATP-sensitive potassium channels of pancreatic beta cells” (J Med Chem, 2006).

Key:
Beta-TC3 = test: Repolarization of beta-TC3 cells; assay type: functional, cell-based, Mus musculus
Beta-TC6 [1] = test: Inhibition of glucose-stimulated insulin release in beta-TC6 cells at 10 uM; assay type: functional, Mus musculus
Beta-TC6 [2] = test: Inhibition of glucose-stimulated insulin release in betaTC6 cells; assay type: functional, cell-based; conditions: Mus musculus
Rattus norvegicus [3] = organism: Rattus norvegicus; test: Relaxation of precontracted Wistar rat aorta rings; assay type: functional, organism-based; conditions: for EC50: Rattus norvegicus, Aorta
[4] = Oral bioavailability in Sprague-Dawley rat at 2.48 mg/kg, po; assay type: ADME, organism-based; conditions: in vivo
[5] = Plasma concentration in Sprague-Dawley rat after 30 mins; assay type: ADME, organism-based
[6] = Tmax in Sprague-Dawley rat at 2.48 mg/kg, po or 1.08 mg/kg, iv; assay type: ADME, organism-based; conditions: in vivo
Rattus norvegicus [7] = test: Reduction in plasma insulin level in anaesthetized Sprague-Dawley rat at 3 mg/kg, iv; assay type: functional
Rattus norvegicus [8] = organism: Rattus norvegicus; test: Inhibition of glucose-stimulated insulin release in Wistar rat islets; assay type: functional, organism-based
[9] = Cmax in Sprague-Dawley rat at 2.48 mg/kg, po; assay type: ADME, organism-based; design: dose 2.48 mg/kg, route oral; conditions: in vivo
[10] = Half life in Sprague-Dawley rat at 2.48 mg/kg, po; assay type: ADME, organism-based; design: dose 2.48 mg/kg, route oral; conditions: in vivo
[11] = molecular target: T1, Sulfonylurea receptor 1, Kir6.2 (Homo sapiens, UniProt Q09428+Q14654); test: Repolarization of HEK293 cells expressing Kir6.2/SUR1 KATP channels; assay type: functional, cell-based
Rattus norvegicus [12] = test: Reduction in plasma insulin level in po dosed Zucker obese rat after 2 hrs; assay type: functional; conditions: read-out: ID50 (the source's name)
[13] = Clearance in Sprague-Dawley rat at 2.48 mg/kg, po or 1.08 mg/kg, iv; assay type: ADME, organism-based; conditions: in vivo
[14] = molecular target: T1, Sulfonylurea receptor 1, Kir6.2; test: Displacement of [3H]glibenclamide from human Kir6.2/SUR1 expressed in HEK293 cells in presence of 2 mM ATP; assay type: cell-based
[15] = Tmax in Sprague-Dawley rat at 2.3 mg/kg, po or 1.24 mg/kg, iv; assay type: ADME, organism-based; conditions: in vivo
[16] = molecular target: T1, Sulfonylurea receptor 1, Kir6.2; test: Displacement of [3H]glibenclamide from human Kir6.2/SUR1 expressed in HEK293 cells; assay type: cell-based
[17] = Oral bioavailability in Sprague-Dawley rat at 2.3 mg/kg, po; assay type: ADME, organism-based; conditions: in vivo
[18] = Cmax in Sprague-Dawley rat at 2.3 mg/kg, po; assay type: ADME, organism-based; design: dose 2.3 mg/kg, route oral; conditions: in vivo
[19] = Clearance in Sprague-Dawley rat at 2.3 mg/kg, po or 1.24 mg/kg, iv; assay type: ADME, organism-based; conditions: in vivo
[20] = Half life in Sprague-Dawley rat at 2.3 mg/kg, po; assay type: ADME, organism-based; design: dose 2.3 mg/kg, route oral; conditions: in vivo
[21] = Oral bioavailability in Sprague-Dawley rat at 2.19 mg/kg, po; assay type: ADME, organism-based; conditions: in vivo
[22] = Clearance in Sprague-Dawley rat at 2.19 mg/kg, po or 1.22 mg/kg, iv; assay type: ADME, organism-based; conditions: in vivo
[23] = Tmax in Sprague-Dawley rat at 2.19 mg/kg, po or 1.22 mg/kg, iv; assay type: ADME, organism-based; conditions: in vivo
[24] = Cmax in Sprague-Dawley rat at 2.19 mg/kg, po; assay type: ADME, organism-based; design: dose 2.19 mg/kg, route oral; conditions: in vivo
[25] = Half life in Sprague-Dawley rat at 2.19 mg/kg, po; assay type: ADME, organism-based; design: dose 2.19 mg/kg, route oral; conditions: in vivo
[26] = Tmax in Sprague-Dawley rat at 2 mg/kg, po or 0.5 mg/kg, iv; assay type: ADME, organism-based; conditions: in vivo
Rattus norvegicus [27] = test: Oral bioavailability in Sprague-Dawley rat at 2 mg/kg, po; assay type: ADME, organism-based; conditions: in vivo
[28] = Clearance in Sprague-Dawley rat at 2 mg/kg, po or 0.5 mg/kg, iv; assay type: ADME, organism-based; conditions: in vivo
[29] = Half life in Sprague-Dawley rat at 2 mg/kg, po; assay type: ADME, organism-based; design: dose 2 mg/kg, route oral; conditions: in vivo
[30] = Cmax in Sprague-Dawley rat at 2 mg/kg, po; assay type: ADME, organism-based; design: dose 2 mg/kg, route oral; conditions: in vivo
[31] = Tmax in Sprague-Dawley rat at 1.89 mg/kg, po or 0.89 mg/kg, iv; assay type: ADME, organism-based; conditions: in vivo
[32] = Half life in Sprague-Dawley rat at 1.89 mg/kg, po; assay type: ADME, organism-based; design: dose 1.89 mg/kg, route oral; conditions: in vivo
[33] = Clearance in Sprague-Dawley rat at 1.89 mg/kg, po or 0.89 mg/kg, iv; assay type: ADME, organism-based; conditions: in vivo
[34] = Cmax in Sprague-Dawley rat at 1.89 mg/kg, po; assay type: ADME, organism-based; design: dose 1.89 mg/kg, route oral; conditions: in vivo
[35] = Oral bioavailability in Sprague-Dawley rat at 1.89 mg/kg, po; assay type: ADME, organism-based; conditions: in vivo
[36] = Mus musculus, Beta-TC3, read-out: EC50

T1 sequence (Q14654 whole entry): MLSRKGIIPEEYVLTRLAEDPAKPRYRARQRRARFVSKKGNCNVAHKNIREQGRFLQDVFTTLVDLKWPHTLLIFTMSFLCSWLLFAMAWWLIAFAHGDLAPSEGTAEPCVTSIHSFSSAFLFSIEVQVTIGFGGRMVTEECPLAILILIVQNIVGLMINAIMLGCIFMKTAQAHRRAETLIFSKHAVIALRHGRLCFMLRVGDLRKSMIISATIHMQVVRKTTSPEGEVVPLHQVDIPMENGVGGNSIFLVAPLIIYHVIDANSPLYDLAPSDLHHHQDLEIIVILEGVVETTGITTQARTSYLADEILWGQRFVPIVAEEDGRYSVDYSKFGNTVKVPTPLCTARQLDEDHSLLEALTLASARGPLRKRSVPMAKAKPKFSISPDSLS
T1 sequence (Q09428 whole entry): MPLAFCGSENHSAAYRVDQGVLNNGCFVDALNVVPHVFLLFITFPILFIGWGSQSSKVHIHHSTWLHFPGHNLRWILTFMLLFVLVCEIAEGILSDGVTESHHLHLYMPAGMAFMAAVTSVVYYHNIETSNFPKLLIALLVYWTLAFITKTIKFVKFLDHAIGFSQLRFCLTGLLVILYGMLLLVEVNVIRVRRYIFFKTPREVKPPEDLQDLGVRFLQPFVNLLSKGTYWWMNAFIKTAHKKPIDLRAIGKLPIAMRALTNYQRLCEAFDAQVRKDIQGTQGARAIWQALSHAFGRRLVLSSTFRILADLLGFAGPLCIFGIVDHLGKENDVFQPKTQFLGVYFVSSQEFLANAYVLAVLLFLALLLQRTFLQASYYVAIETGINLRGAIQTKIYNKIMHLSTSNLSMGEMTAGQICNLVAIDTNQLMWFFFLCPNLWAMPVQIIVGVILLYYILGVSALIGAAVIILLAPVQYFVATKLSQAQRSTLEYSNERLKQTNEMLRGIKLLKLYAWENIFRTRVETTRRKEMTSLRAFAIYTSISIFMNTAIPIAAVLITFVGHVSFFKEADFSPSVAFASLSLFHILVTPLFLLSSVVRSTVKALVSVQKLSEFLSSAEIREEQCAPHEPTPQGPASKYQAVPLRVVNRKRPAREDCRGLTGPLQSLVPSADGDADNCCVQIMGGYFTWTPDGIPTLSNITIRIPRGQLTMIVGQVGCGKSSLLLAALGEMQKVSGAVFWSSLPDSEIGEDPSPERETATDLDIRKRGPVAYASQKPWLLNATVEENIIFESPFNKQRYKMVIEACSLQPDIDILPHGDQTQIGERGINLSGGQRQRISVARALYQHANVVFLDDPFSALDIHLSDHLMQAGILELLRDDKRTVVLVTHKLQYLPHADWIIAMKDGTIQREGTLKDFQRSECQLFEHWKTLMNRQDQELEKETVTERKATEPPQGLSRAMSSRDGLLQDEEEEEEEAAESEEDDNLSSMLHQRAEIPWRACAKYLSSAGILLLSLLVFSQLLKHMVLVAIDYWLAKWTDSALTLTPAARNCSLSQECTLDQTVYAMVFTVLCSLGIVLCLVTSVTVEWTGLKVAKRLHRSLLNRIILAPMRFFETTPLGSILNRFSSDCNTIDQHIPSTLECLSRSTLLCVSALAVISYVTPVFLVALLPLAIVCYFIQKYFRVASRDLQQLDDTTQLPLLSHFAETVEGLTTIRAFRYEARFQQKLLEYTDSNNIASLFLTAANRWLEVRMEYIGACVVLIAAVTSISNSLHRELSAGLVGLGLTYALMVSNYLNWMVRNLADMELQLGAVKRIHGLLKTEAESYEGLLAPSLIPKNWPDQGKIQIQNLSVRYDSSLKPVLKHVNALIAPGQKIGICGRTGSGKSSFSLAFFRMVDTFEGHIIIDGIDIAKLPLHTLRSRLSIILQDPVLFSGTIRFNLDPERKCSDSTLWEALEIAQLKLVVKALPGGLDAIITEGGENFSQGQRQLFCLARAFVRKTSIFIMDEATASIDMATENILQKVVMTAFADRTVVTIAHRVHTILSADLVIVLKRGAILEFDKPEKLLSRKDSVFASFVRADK

Row | SMILES | EC50 (Beta-TC3; [36]) | Efficacy (Beta-TC6 [1]) | EC50 (Beta-TC6 [2]) | EC50 (Rattus norvegicus [3]) | further results
1 | CC1(NC2=NS(=O)(=O)c3sc(Cl)cc3N2)CCC1 | 20 nM | 92% | 20 nM | – | –
2 | C[C@@H](NC1=NS(=O)(=O)c2sc(Cl)cc2N1)c1ccccc1 | 500 nM | 68% | 990 nM | 24000 nM | –
3 | C[C@H](NC1=NS(=O)(=O)c2sc(Cl)cc2N1)c1ccc(Br)cc1 | 2000 nM | 69% | 2070 nM | 95000 nM | –
4 | CC1(NC2=NS(=O)(=O)c3scc(Br)c3N2)CC1 | – | 5% | 6700 nM | – | EC50 (Beta-TC3; beta-tc3): Not Active
5 | CC1(NC2=NS(=O)(=O)c3scc(Cl)c3N2)CC1 | – | 2% | 280 nM | – | EC50 (Beta-TC3; beta-tc3): Not Active
6 | CC(C)NC1=NS(=O)(=O)c2cc(Cl)sc2N1 | 5000 nM | 16% | 19800 nM | > 300000 nM | –
7 | CC1(NC2=NS(=O)(=O)c3sc(Br)cc3N2)CC1 | 140 nM | 81% | 310 nM | 133000 nM | bioavailability [4]: 96%; concentration at 0.5 h [5]: 340 ng/mL; Tmax [6]: 1.5 h; inhibition in vivo at 3 mg/kg (Rattus norvegicus [7]): 97%; EC50 (Rattus norvegicus [8]): 20 nM; Cmax [9]: 885 ng/mL; half-life [10]: 2.6 h; EC50 [11]: 160 nM; ED50 (Rattus norvegicus [12]): < 3 mg/kg; clearance [13]: 15 mL/min/kg
8 | COc1ccc(C2(NC3=NS(=O)(=O)c4sc(Cl)cc4N3)CC2)cc1 | 500 nM | 69% | 3570 nM | 2890 nM | –
9 | C[C@H](NC1=NS(=O)(=O)c2sc(Cl)cc2N1)c1ccccc1 | 3500 nM | 28% | 13000 nM | 34900 nM | Emax (Beta-TC3; Mus musculus, Beta-TC3): < 60%
10 | CC(C)(NC1=NS(=O)(=O)c2sc(Cl)cc2N1)c1ccccc1 | 130 nM | 76% | 240 nM | 103000 nM | IC50 [14]: 81 nM; Tmax [15]: 0.25 h; IC50 [16]: 360000 nM; bioavailability [17]: 82%; Cmax [18]: 2590 ng/mL; clearance [19]: 7.3 mL/min/kg; inhibition in vivo at 3 mg/kg (Rattus norvegicus [7]): 86%; EC50 (Rattus norvegicus [8]): 40 nM; EC50 [11]: 180 nM; ED50 (Rattus norvegicus [12]): 4 mg/kg; half-life [20]: 0.867 h
11 | CN1C(NC2(C)CC2)=NS(=O)(=O)c2sc(Cl)cc21 | – | 23% | 740 nM | – | EC50 (Beta-TC3; beta-tc3): Not Active
12 | O=S1(=O)N=C(NC2(C(F)(F)F)CC2)Nc2cc(Cl)sc21 | 400 nM | 76% | 1400 nM | 40000 nM | bioavailability [21]: 70%; clearance [22]: 5 mL/min/kg; Tmax [23]: 0.5 h; inhibition in vivo at 3 mg/kg (Rattus norvegicus [7]): 90%; EC50 (Rattus norvegicus [8]): 160 nM; EC50 [11]: 530 nM; ED50 (Rattus norvegicus [12]): 8 mg/kg; Cmax [24]: 533 ng/mL; half-life [25]: 5.5 h
13 | O=S1(=O)NC(NCc2ccccc2)=Nc2cc(Cl)sc21 | 3600 nM | 30% | 6110 nM | 133000 nM | Emax (Beta-TC3; Mus musculus, Beta-TC3): < 60%
14 | O=S1(=O)NC(NC2(c3ccccc3)CC2)=Nc2cc(Cl)sc21 | 480 nM | 66% | 2670 nM | 183000 nM | EC50 (Rattus norvegicus [8]): 110 nM; EC50 [11]: 810 nM
15 | O=S1(=O)N=C(NC2(c3cccc(Cl)c3)CCC2)Nc2cc(Cl)sc21 | 160 nM | 40% | 13400 nM | 13900 nM | –
16 | CC1(NC2=NS(=O)(=O)c3sccc3N2)CC1 | > 30000 nM | 19% | 190 nM | 6870 nM | Efficacy (Rattus norvegicus [3]): 18%
17 | CC1(NC2=NS(=O)(=O)c3cc(Cl)sc3N2)CC1 | – | – | – | – | EC50 (Beta-TC3; beta-tc3): Not Active
18 | O=S1(=O)N=C(NCC(F)(F)F)Nc2cc(Cl)sc21 | 3100 nM | 36% | 150 nM | 173000 nM | –
19 | CC1=Nc2ccc(Cl)cc2S(=O)(=O)N1 [DIAZOXIDE] | 13700 nM | 25% | 23000 nM | – | Tmax [26]: 1 h; F (Rattus norvegicus [27]): 154%; clearance [28]: 8 mL/min/kg; half-life [29]: 1.32 h; inhibition in vivo at 3 mg/kg (Rattus norvegicus [7]): 53%; Cmax [30]: 1450 ng/mL; EC50 (Rattus norvegicus [8]): 20300 nM; ED50 (Rattus norvegicus [12]): > 30 mg/kg
20 | CC1(NC2=NS(=O)(=O)c3sc(Cl)cc3N2)CC1 [TIFENAZOXIDE] | – | 73% | 250 nM | – | Tmax [31]: 0.5 h; half-life [32]: 4.17 h; clearance [33]: 7.02 mL/min/kg; inhibition in vivo at 3 mg/kg (Rattus norvegicus [7]): 85%; ED50 (Rattus norvegicus [12]): 1.5 mg/kg; Cmax [34]: 1230 ng/mL; bioavailability [35]: 103%
